{
  "source": "patent US12599597B2",
  "about": "“Substituted N-benzhydrylacetamide inhibitors of jumanji domain histone demethylases for the treatment of cancer” (University of Kentucky Research Foundation, priority 2020, dated 2026)",
  "assay_in_all_cases": "Histone demethylase assay, purified enzyme panel",
  "format_in_all_cases": "biochemical",
  "details_in_all_cases": "Reference inhibitor",
  "key": {"JMJD2A (KDM4A)": {"molecular_target": "T1, JMJD2A (KDM4A) (Homo sapiens, UniProt O75164)", "T1 sequence (O75164 1-1064)": "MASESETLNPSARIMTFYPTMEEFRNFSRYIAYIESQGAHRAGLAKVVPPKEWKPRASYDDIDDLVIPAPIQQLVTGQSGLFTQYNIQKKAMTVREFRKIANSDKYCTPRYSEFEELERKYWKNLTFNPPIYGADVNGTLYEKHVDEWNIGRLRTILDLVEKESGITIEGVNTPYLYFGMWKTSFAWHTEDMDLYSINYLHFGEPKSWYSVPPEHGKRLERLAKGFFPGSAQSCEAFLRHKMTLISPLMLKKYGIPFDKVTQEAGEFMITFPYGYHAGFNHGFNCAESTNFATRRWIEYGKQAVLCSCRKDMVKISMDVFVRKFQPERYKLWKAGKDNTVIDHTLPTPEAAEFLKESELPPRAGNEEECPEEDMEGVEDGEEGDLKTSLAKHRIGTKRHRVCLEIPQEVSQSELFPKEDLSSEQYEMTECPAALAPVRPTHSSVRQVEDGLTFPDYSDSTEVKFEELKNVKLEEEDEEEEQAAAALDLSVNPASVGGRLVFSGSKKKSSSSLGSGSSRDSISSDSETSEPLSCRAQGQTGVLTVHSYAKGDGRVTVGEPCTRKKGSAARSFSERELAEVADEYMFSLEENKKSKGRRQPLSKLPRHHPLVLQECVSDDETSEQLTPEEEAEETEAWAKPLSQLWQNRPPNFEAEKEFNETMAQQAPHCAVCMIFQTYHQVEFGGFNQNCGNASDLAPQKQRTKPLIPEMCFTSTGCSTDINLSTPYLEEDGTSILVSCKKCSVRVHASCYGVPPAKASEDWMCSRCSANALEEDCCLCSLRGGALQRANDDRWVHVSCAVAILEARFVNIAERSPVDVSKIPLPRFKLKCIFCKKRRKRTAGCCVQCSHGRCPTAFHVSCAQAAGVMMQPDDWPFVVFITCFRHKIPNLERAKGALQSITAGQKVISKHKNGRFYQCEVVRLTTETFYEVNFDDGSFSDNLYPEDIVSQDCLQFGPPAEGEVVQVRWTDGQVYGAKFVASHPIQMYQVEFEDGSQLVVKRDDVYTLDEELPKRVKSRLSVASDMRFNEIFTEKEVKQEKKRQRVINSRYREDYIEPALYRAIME", "source_text": "(§1) Histone Demethylase Assay\n(§2) To further examine the effects of 58B1 on histone demethylase, we screened a panel of purified histone demethylases was screened."}, "JMJD2C (KDM4C)": {"molecular_target": "T2, JMJD2C (KDM4C) (Homo sapiens, UniProt Q9H3R0)", "T2 sequence (Q9H3R0 1-1056)": "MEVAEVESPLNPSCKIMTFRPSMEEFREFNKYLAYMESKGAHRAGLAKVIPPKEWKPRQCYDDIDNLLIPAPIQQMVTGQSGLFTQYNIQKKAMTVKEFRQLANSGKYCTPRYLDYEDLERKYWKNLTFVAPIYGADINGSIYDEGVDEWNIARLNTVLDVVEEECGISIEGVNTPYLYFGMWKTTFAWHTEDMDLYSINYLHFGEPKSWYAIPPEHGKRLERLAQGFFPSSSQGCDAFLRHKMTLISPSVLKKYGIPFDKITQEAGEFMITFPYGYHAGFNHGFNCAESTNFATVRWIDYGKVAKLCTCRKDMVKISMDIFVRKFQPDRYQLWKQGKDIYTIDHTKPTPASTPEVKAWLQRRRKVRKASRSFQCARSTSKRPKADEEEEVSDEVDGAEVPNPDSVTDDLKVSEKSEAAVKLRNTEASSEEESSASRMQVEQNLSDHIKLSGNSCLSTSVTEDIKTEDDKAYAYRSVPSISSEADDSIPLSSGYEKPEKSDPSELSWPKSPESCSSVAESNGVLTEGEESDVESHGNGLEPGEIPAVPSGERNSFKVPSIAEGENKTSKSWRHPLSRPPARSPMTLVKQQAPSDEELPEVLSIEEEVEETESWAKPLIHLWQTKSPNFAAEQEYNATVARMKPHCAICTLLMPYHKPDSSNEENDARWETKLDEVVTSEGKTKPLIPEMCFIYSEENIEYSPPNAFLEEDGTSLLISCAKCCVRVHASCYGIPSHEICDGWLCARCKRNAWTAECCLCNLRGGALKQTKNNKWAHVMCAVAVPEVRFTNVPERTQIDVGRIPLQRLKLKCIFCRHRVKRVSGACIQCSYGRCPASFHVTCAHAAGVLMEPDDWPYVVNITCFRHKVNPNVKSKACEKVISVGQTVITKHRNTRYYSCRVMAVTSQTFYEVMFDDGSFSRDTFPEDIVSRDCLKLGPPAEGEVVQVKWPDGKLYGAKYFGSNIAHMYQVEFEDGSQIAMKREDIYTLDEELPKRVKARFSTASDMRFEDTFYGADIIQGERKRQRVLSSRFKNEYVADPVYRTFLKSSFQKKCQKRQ", "source_text": "as §1, §2"}, "FBXL10 (KDM2B)": {"molecular_target": "T3, FBXL10 (KDM2B) (Homo sapiens, UniProt Q8NHM5)", "T3 sequence (Q8NHM5 1-1336)": "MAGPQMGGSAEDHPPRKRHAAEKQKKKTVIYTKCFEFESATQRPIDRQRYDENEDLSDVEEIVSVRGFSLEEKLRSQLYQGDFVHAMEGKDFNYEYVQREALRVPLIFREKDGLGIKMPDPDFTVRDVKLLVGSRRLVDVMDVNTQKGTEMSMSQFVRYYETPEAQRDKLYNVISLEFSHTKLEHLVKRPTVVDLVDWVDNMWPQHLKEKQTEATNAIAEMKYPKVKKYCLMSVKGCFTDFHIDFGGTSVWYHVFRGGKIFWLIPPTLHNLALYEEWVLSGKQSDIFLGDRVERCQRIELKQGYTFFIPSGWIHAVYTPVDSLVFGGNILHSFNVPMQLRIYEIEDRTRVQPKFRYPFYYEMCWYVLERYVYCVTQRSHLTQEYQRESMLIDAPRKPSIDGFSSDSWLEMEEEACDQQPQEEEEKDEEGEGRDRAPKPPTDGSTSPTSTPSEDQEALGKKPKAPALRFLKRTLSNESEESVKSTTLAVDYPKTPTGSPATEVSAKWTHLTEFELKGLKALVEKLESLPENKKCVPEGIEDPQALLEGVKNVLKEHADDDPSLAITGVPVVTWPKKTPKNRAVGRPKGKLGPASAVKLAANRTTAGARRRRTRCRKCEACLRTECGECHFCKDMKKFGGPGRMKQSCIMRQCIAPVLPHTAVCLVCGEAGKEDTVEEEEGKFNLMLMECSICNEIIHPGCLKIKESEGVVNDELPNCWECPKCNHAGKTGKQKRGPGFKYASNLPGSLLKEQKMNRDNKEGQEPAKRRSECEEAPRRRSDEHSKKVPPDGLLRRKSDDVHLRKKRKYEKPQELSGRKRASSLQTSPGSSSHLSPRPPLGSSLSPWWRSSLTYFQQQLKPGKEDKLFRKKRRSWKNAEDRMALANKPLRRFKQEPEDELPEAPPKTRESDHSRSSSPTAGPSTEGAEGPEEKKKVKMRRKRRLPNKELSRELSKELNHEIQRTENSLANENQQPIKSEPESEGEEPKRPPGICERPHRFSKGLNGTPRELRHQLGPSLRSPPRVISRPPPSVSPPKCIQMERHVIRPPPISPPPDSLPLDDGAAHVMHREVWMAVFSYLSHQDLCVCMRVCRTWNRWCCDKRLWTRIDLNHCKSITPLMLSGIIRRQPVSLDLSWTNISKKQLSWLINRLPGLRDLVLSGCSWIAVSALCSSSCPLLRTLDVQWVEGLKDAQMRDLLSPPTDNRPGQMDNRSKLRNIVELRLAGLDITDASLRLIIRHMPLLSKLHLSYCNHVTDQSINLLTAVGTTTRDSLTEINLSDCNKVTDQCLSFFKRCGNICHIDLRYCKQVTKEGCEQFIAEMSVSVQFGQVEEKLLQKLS", "source_text": "as §1, §2"}},
  "data": [
    {"smiles": "O=C(O)c1ccnc(C(=O)O)c1", "note": "[2,4-Pyridine Dicarboxylic Acid, reference compound]", "values": [
      {"measurement": "% Inhibition", "setting": "JMJD2A (KDM4A)", "result": 100, "unit": "%"},
      {"measurement": "% Inhibition", "setting": "JMJD2C (KDM4C)", "result": 100, "unit": "%"},
      {"measurement": "% Inhibition", "setting": "FBXL10 (KDM2B)", "result": 99, "unit": "%"}
    ]}
  ]
}
